molecular target: T1, Human CXCR4 transfected HEK293 cells (Homo sapiens, UniProt P61073); test: CXCR4 functional calcium assay (calcium flux FLIPR, antagonism of SDF1 response); assay type: cell-based; conditions: CXCR4 functional activity, antagonism of SDF1 (EC50 concentration), read-out: CXCR4 fKi
T1 construct: expressed in transfected cells; host or cells: HEK293
Description: The functional activity of test compounds was routinely tested by measuring the ability of compounds to antagonize CXCR4 activity in a dose dependent manner, using a calcium flux Fluorescent Imaging Plate Reader FLIPR assay.
Human CXCR4 transfected HEK293 cells were cultured in Dulbecco's modified Eagles medium containing 4.5 g/L glucose, L-glutamine, pyruvate, 50 µg/mL Geneticin and 250 µg/mL hygromycin B and maintained at 37° C. in a humidified, 5% CO2 controlled atmosphere. Subcultivations were performed every 2-3 d.
At confluence the cells were lifted using Ca^2+ and Mg^2+ free PBS/0.02% (w/v) EDTA, spun at 1000 rpm for 3 min and resuspended at 2.5×10^5 cells/mL. Cells were plated into a 384 well, poly-d-lysine coated, black with clear bottomed plate (Becton Dickinson) at 7500 cells/well. The plates were incubated overnight at 37° C. under 5% CO2. On the day of the experiment the cells were washed with incubation Buffer (HBSS containing 2.5 mM probenecid, 0.1% w/v BSA and 10 mM HEPES, pH 7.4 at 37° C.). After washing, the cells were loaded with Fluo-4 AM dye (Molecular probes) at 2 µM containing 0.48 µg/mL pluronic acid for 60 min at 37° C. under 5% CO2. After thorough washing with incubation buffer the cells were preincubated for 10 min at 37° C. before use.
A combined agonist/antagonist protocol was used to measure changes in intracellular calcium concentration. Compound (antagonist) was added to the cell plate using a Fluorometric Imaging Plate Reader (FLIPR) (Molecular Devices, Sunnyvale, Calif., USA). Basal fluorescence was recorded every second for 10 seconds prior to compound addition (10 μl) and fluorescence recorded every second for 1 min then every 6 seconds for a further 1 min. SDF1[…] (EC50 concentration) was then added using the FLIPR and fluorescence recorded as described above. Curve-fitting and parameter estimation were carried out using GraphPad Prism 4.0 (GraphPad Software Inc., San Diego, Calif.).

T1 sequence (P61073 whole entry): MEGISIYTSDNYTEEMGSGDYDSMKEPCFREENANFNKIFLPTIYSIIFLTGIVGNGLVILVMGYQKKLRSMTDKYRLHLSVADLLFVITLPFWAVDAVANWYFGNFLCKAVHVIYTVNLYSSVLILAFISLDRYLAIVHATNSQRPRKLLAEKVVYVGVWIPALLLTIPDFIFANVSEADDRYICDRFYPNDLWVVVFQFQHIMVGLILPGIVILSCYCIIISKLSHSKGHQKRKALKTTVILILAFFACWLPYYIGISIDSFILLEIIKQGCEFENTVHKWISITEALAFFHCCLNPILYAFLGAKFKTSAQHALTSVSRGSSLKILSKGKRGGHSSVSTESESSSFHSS

`O=C(NCC1CC1)c1cccc(N2CCCN(CCCN3CCc4ccccc4C3)CC2)n1` [Example 252, N-(Cyclopropylmethyl)-6-{4-[3-(1,2,3,4-tetrahydroisoquinolin-2-yl)propyl]-1,4-diazepan-1-yl}pyridine-2-carboxamide] and `O=C(NCC1CC1)c1cccc(N2CCCN(CCCN3CCC(F)(F)C3)CC2)n1` [Example 253, N-(Cyclopropylmethyl)-6-{4-[3-(3,3-difluoropyrrolidin-1-yl)propyl]-1,4-diazepan-1-yl}pyridine-2-carboxamide] fall in the same range of Ki: 500 to 1000 nM for the first, 500 to 1000 nM for the second.

First: CC(C)N1CCC(N2CCCN(c3cccc(C(=O)N4CCc5ccccc5C4)n3)CC2)CC1 [Example 22, 2-[(6-{4-[1-(Propan-2-yl)piperidin-4-yl]-1,4-diazepan-1-yl}pyridin-2-yl)carbonyl]-1,2,3,4-tetrahydroisoquinoline]
Second: CC(C)N1CCC(N2CCCN(c3cccc(C(=O)Cc4ccccc4)n3)CC2)CC1 [Example 220, 2-Phenyl-1-(6-{4-[1-(propan-2-yl)piperidin-4-yl]-1,4-diazepan-1-yl}pyridin-2-yl)ethan-1-one]
The Ki of the first is higher: 100 to 500 nM for the first, 20 to 100 nM for the second. The second binds more tightly here.

Compared with `CCc1nc(-c2cccc(N3CCCN(C4CCN(C(C)C)CC4)CC3)n2)[nH]c1CC` [Example 120, 1-[6-(4,5-Diethyl-1H-imidazol-2-yl)pyridine-2-yl]-4-[1-(propan-2-yl)piperidin-4-yl]-1,4-diazepane], `CCc1nc(-c2cccc(N3CCCN(C4CCN(C(C)C)CC4)CC3)n2)[nH]c1C1CC1` [Example 122, 1-[6-(4-Cyclopropyl-5-ethyl-1H-imidazol-2-yl)pyridine-2-yl]-4-[1-(propan-2-yl)piperidin-4-yl]-1,4-diazepane] is lower in Ki: 20 to 100 nM for the first, under 20 nM for the second.

`O=C(NCC1CC1)c1cccc(N2CCCN(C3CCN(Cc4cccc(Cl)c4)CC3)CC2)n1` [Example 134, 6-(4-{1-[(3-Chlorophenyl)methyl]piperidin-4-yl}-1,4-diazepan-1-yl)-N-(cyclopropylmethyl)pyridine-2-carboxamide] and `CCCN1CCC(N2CCCN(c3cccc(C(=O)NCC4CC4)n3)CC2)CC1` [Example 61, N-(Cyclopropylmethyl)-6-[4-(1-propylpiperidin-4-yl)-1,4-diazepan-1-yl]pyridine-2-carboxamide] fall in the same range of Ki: 100 to 500 nM for the first, 100 to 500 nM for the second.

First: O=C(NCc1ncco1)c1cccc(N2CCCN(C3CCN(Cc4ccccc4Cl)CC3)CC2)n1 [Example 57, 6-(4-{1-[(2-Chlorophenyl)methyl]piperidin-4-yl}-1,4-diazepan-1-yl)-N-(1,3-oxazol-2-ylmethyl)pyridine-2-carboxamide]
Second: O=C(NCC(F)(F)F)c1cccc(N2CCCN(C3CCN(Cc4ccccc4Cl)CC3)CC2)n1 [Example 48, 6-(4-{1-[(2-Chlorophenyl)methyl]piperidin-4-yl}-1,4-diazepan-1-yl)-N-(2,2,2-trifluoroethyl)pyridine-2-carboxamide]
The Ki of the first is lower: 20 to 100 nM for the first, 100 to 500 nM for the second. The first binds more tightly here.

First: CC(C)N1CCC(N2CCCN(c3cccc(C(=O)NCCn4ccnc4)n3)CC2)CC1 [Example 45, N-[2-(1H-Imidazol-1-yl)ethyl]-6-{4-[1-(propan-2-yl)piperidin-4-yl]-1,4-diazepan-1-yl}pyridine-2-carboxamide]
Second: COCCCNC(=O)c1cccc(N2CCCN(C3CCN(C(C)C)CC3)CC2)n1 [Example 15, N-(3-Methoxypropyl)-6-{4-[1-(propan-2-yl)piperidin-4-yl]-1,4-diazepan-1-yl}pyridine-2-carboxamide]
The Ki of the first is lower: 20 to 100 nM for the first, 100 to 500 nM for the second.

First: CC(C)N1CCC(N2CC3CC(C2)N(c2cccc(C(=O)NCC4CC4)n2)C3)CC1 (stereo not drawn) [Example 200, N-(Cyclopropylmethyl)-6-{3-[1-(propan-2-yl)piperidin-4-yl]-3,6-diazabicyclo[3.2.1]octan-6-yl}pyridine-2-carboxamide]
Second: CC(C)N1CC[C@@H](N2CCCN(c3cccc(C(=O)NCC4CC4)n3)CC2)[C@H](O)C1 [Example 216, N-(Cyclopropylmethyl)-6-{4-[(3R)-3-hydroxy-1-(propan-2-yl)piperidin-4-yl]-1,4-diazepan-1-yl}pyridine-2-carboxamide]
The Ki of the first is higher: 500 to 1000 nM for the first, 100 to 500 nM for the second. The second binds more tightly here.

`N#Cc1cccc(N2CCCN(C3CCN(Cc4ccccc4Cl)CC3)CC2)n1` [Example 259, 6-(4-{1-[(2-Chlorophenyl)methyl]piperidin-4-yl}-1,4-diazepan-1-yl)pyridine-2-carbonitrile] and `O=C(NCC1CC1)c1csc(N2CCCN(C3CCN(Cc4ccccc4Cl)CC3)CC2)n1` [Example 265, 2-(4-{1-[(2-Chlorophenyl)methyl]piperidin-4-yl}-1,4-diazepan-1-yl)-N-(cyclopropylmethyl)-1,3-thiazole-4-carboxamide] fall in the same range of Ki: 500 to 1000 nM for the first, 500 to 1000 nM for the second.

First: CC(C)N1CCC(N2CCCN(c3cccc(C(=O)NCc4cscn4)n3)CC2)CC1 [Example 42, 6-{4-[1-(Propan-2-yl)piperidin-4-yl]-1,4-diazepan-1-yl}-N-(1,3-thiazol-4-ylmethyl)pyridine-2-carboxamide]
Second: Cc1cnccc1NC(=O)c1cccc(N2CCCN(C3CCN(C(C)C)CC3)CC2)n1 [Example 88, N-(3-Methylpyridin-4-yl)-6-{4-[1-(propan-2-yl)piperidin-4-yl]-1,4-diazepan-1-yl}pyridine-2-carboxamide]
The Ki of the first is higher: 20 to 100 nM for the first, under 20 nM for the second.

`C[C@@H](N1CCC(N2CCCN(c3cccc(C(=O)Nc4ccncc4)n3)CC2)CC1)C(F)(F)F` [Example 81, N-(Pyridin-4-yl)-6-(4-{1-[(2R)-1,1,1-trifluoropropan-2-yl]piperidin-4-yl}-1,4-diazepan-1-yl)pyridine-2-carboxamide] and `C[C@H](N1CCC(N2CCCN(c3cccc(C(=O)Nc4ccncc4)n3)CC2)CC1)C(F)(F)F` [Example 82, N-(Pyridin-4-yl)-6-(4-{1-[(2S)-1,1,1-trifluoropropan-2-yl]piperidin-4-yl}-1,4-diazepan-1-yl)pyridine-2-carboxamide] cannot be ordered by Ki: under 20 nM for the first, under 20 nM for the second.

Compared with `CC(C)N1CCC(N2CCCN(c3cccc(-c4nc5ccccc5[nH]4)n3)CC2)CC1` [Example 141, 2-(6-{4-[1-(Propan-2-yl)piperidin-4-yl]-1,4-diazepan-1-yl}pyridine-2-yl)-1H-1,3-benzodiazole], `CC(C)N1CCC(N2CCCN(c3cccc(-c4c[nH]c5ccccc45)n3)CC2)CC1` [Example 102, 3-(6-{4-[1-(Propan-2-yl)piperidin-4-yl]-1,4-diazepan-1-yl}pyridine-2-yl)-1H-indole] is higher in Ki: under 20 nM for the first, 500 to 1000 nM for the second.

`CC(C)N1CCC(N2CCCN(c3cccc(-c4noc(C5CC5)n4)n3)CC2)CC1` [Example 161, 1-[6-(5-Cyclopropyl-1,2,4-oxadiazol-3-yl)pyridine-2-yl]-4-[1-(propan-2-yl)piperidin-4-yl]-1,4-diazepane] and `Cc1nc(-c2cccc(N3CCN(C4CCCN(C(C)C)CC4)CC3)n2)[nH]c1C1CC1` (stereo not drawn) [Example 243, 4-{4-[6-(5-Cyclopropyl-4-methyl-1H-imidazol-2-yl)pyridin-2-yl]piperazin-1-yl}-1-(propan-2-yl)azepane] fall in the same range of Ki: 100 to 500 nM for the first, 100 to 500 nM for the second.

`O=C(Nc1ccncc1)c1cccc(N2CCCN(C3CCN(C4CCCC4)CC3)CC2)n1` [Example 83, 6-[4-(1-Cyclopentylpiperidin-4-yl)-1,4-diazepan-1-yl]-N-(pyridine-4-yl)pyridine-2-carboxamide] and `[2H]C1([2H])CCN(C2CCN([C@@H](C)CC)CC2)CCN1c1cccc(C(=O)Nc2ccncc2)n1` [Example 177, 6-(4-{1-[(2S)-Butan-2-yl]piperidin-4-yl}-7,7-dihydrogenio-1,4-diazepan-1-yl)-N-(pyridine-4-yl)pyridine-2-carboxamide] cannot be ordered by Ki: under 20 nM for the first, under 20 nM for the second.

Compared with `CCc1cnc(-c2cccc(NCCNC3CCN([C@H](C)CC)CC3)n2)[nH]1` [Example 235, 1-[(2R)-Butan-2-yl]-N-(2-{[6-(4-ethyl-1H-imidazol-2-yl)pyridin-2-yl]amino}ethyl)piperidin-4-amine], `[2H]C1([2H])CCN(c2cccc(C(=O)Nc3ccncc3)n2)CC(C)N1C1CCN(C(C)C)CC1` (stereo not drawn) [Example 195, 6-{5,5-Dihydrogenio-3-methyl-4-[1-(propan-2-yl)piperidin-4-yl]-1,4-diazepan-1-yl}-N-(pyridin-4-yl)pyridine-2-carboxamide] is lower in Ki: 100 to 500 nM for the first, under 20 nM for the second. The second binds more tightly here.

First: O=C(NCC1CC1)c1cccc(N2CCCN(C3CCN(C4CCOC4)CC3)CC2)n1 (stereo not drawn) [Example 128, N-(Cyclopropylmethyl)-6-{4-[1-(oxolan-3-yl)piperidin-4-yl]-1,4-diazepan-1-yl}pyridine-2-carboxamide]
Second: [2H]C1([2H])CCN(c2cccc(C(=O)Nc3ccncc3)n2)CC(C)N1C1CCN(Cc2ccc(F)cc2Cl)CC1 (stereo not drawn) [Example 207, 6-(4-{1-[(2-Chloro-4-fluorophenyl)methyl]piperidin-4-yl}-5,5-dihydrogenio-3-methyl-1,4-diazepan-1-yl)-N-(pyridin-4-yl)pyridine-2-carboxamide]
The Ki of the first is higher: 100 to 500 nM for the first, under 20 nM for the second. The second binds more tightly here.
